Measured values published in PubChem BioAssay AID179 (DTP/NCI, 2004).
Activity calls are given as the source filed them.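 How the source made its calls: active means compounds giving half or more protection of infected cells from virus-caused growth loss, again on retest; inactive means the rest.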

System: CEM cells HIV-1 protection, formazan growth assay
Assay: NCI AIDS Antiviral Assay
Settings: for IC50: measured here: growth of uninfected CEM cells
Outline: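 Screen of anti-HIV-1 activity in human CEM cells using a formazan-based growth measurement at five drug concentrations. Hits with 50% or greater protection were repeated, and confirmation required reproducible complete protection.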

SMILES | EC50 | IC50 | outcome
O=C(NCc1ccccc1)C1C(=O)C(=O)N(Cc2ccccc2)C1=O (configuration not stated) | > 269 µM | > 269 µM | –
CC(=O)N(C(=O)CC(=O)N1N=C(c2ccccc2)C(N=Nc2ccccc2[N+](=O)[O-])C1=O)c1ccc(Cl)cc1 (configuration not stated) | 166 µM | > 200 µM | –
CCOC(=O)/C(C#N)=C/c1cccc(C)c1 | > 120 µM | > 120 µM | –
CCc1ccccc1NC(=O)C1=C(C)NC(C)=C(C(=O)Nc2c(CC)cccc2CC)C1c1ccc2c(c1)OCO2 (configuration not stated) | > 33.9 µM | > 33.9 µM | –
C[CH2][Ge]1([CH2]C)[CH2]CC2(CCN(CCCN(C)C)C2)C[CH2]1 | > 251 µM | 1.38 µM | –
CCOC(=O)CCC(NC(=O)c1ccc(Oc2nc3ccc(C(F)(F)F)cc3nc2-c2ccccc2)cc1)C(=O)OCC (configuration not stated) | > 200 µM | 195 µM | –
Cc1ccc(N=Nc2ccc(N(CCC#N)CCC#N)cc2C)c(Br)c1 | > 3.55 µM | > 3.55 µM | –
Nc1ccc(S(=O)(=O)NC(CSSCC(NS(=O)(=O)c2ccc(N)cc2)C(=O)O)C(=O)O)cc1 (configuration not stated) | > 200 µM | > 200 µM | –
CCC[CH2][Sn]([CH2]CCC)([CH2]CCC)[CH2]N1CCC(=O)C[C@@H]1C/C=C/[P@]1(=O)O[C@H](c2ccccc2)C(C)N1C(C)C (some centres not stated) | – | – | inactive
COc1cc(NC=O)c2c(c1)SCC(=O)N2 | > 200 µM | 135 µM | –
Cn1c(=O)nc2n(-c3ccc(Cl)c(C(F)(F)F)c3)c3ccccc3nc-2c1=O | – | – | inactive
CNC(=S)N/N=C(\C)c1cc(OC)ccc1O | > 200 µM | 14.5 µM | –
C/C=C/C1(C)/C(=N\O)C(C)(CCC)C(=O)N1O (configuration not stated) | 25.1 µM | 1050 µM | –
Cc1cc(O)oc(=O)c1 | > 2000 µM | > 2000 µM | –
Nc1ccc2c(c1)Oc1c(F)c(F)cc3c(=O)c(C(=O)O)cn-2c13 | > 11.5 µM | 11.2 µM | –
CN1C(=O)C(O)Nc2ncncc21 (configuration not stated) | > 200 µM | 32.4 µM | –
COc1ccc(/C=C/C(=O)/C=C/c2ccc(OC)cc2OC)c(OC)c1 | > 200 µM | 3.89 µM | –

SMILES | EC50 | IC50 | outcome
O=C(O)CCCCCCCCCCCC(=O)O | > 148 µM | > 148 µM | –
CC(C)(C)n1c(=O)n2n(c1=O)C1c3cccc4cccc(c34)C2C2c3cccc4cccc(c34)C1n1c(=O)n(C(C)(C)C)c(=O)n12 | > 200 µM | 50.1 µM | –
O=c1cnn(C2OC(CO)C(O)C(F)C2O)c(=O)[nH]1 (configuration not stated) | > 200 µM | > 200 µM | –
CC(O)CCNc1nnc2c3ccccc3n(C)c2n1 (configuration not stated) | > 200 µM | > 200 µM | –
CC(=O)OCCn1c(Cc2ccc(Cl)cc2)nn(C(C)=O)c1=O | > 200 µM | > 200 µM | –
CC1=CC[C@@H]2C(=O)C=CC=C[C@H]12.[C-]#[O+].[C-]#[O+].[C-]#[O+].[Fe] | > 316 µM | 178 µM | –
CC(NC(=O)N(C)C)NC(=O)N(C)C | – | – | inactive
COc1ccc2oc(=S)[nH]c2c1 | > 200 µM | > 200 µM | –
CC(C)OP(=O)(OC(C)C)C(=Nc1ccc(N=C(NNc2ccc([N+](=O)[O-])cc2)P(=O)(OC(C)C)OC(C)C)cc1)NNc1ccc([N+](=O)[O-])cc1 | > 3.55 µM | > 3.55 µM | –
Cc1cc(=O)oc2c(C)c3oc(CBr)c(Br)c3cc12 | > 200 µM | 2.24 µM | –
CCOC(=O)C(NC(=O)CC)(Nc1ccc(S(=O)(=O)Nc2onc(C)c2C)cc1)C(F)(F)F (configuration not stated) | > 200 µM | > 200 µM | –
N#C/C(=C1/Sc2c(nc[nH]c2=O)N1c1ccccc1)c1nc2ccccc2[nH]1 | > 3.8 µM | > 3.8 µM | –
CCCCCCCCCCCCCCC1OC(=O)c2ccccc21 (configuration not stated) | – | – | inactive
CCOC(=O)C(=Cc1ccccc1OC)C(=O)OCC | > 129 µM | 21.9 µM | –
CC1(C)OCC(C(O)C2OC(C)(C)OC2/C=N\O)O1 (configuration not stated) | > 912 µM | > 912 µM | –
C[C@H](NC1=CC(=O)C(N[C@@H](C)[C@H](O)c2ccccc2)=CC1=O)[C@H](O)c1ccccc1 | > 200 µM | 141 µM | –
